Entries after “also recorded” stand apart in the source; their conditions may differ.
Columns and labels:
[1] = molecular target: T1, His-HIF-1α1–350 with GST-HIF-1β1–474 (Homo sapiens, UniProt Q16665); assay: ELISA of HIF-1 dimerization; assay type: biochemical; details: 10 nM to 500 μM, pH 7.5, 30 min preincubation, room temperature, absorbance 450 nm, read-out: IC50, disruption of HIF-1 dimerization
T1 construct: heterodimerization of His-HIF-1α1–350 with GST-HIF-1β1–474 analyzed by ELISA; made in house; host or cells: E. coli BL21(DE3)
From the text: We next probed the effect of cyclo-CLLFVY on the interaction of HIF-1α with HIF-1β in vitro. […] Unfortunately, the positively charged Tat-tag of P1 is incompatible with EMSA (interferes with the bandshift of DNA). […] To determine the HIF-1-specificity of cyclo-CLLFVY, we assessed its ability to disrupt HIF-2 dimerization by ELISA. Recombinant His-HIF-2α1–351 was produced and purified, and shown to form functional heterodimers with GST-HIF-1β1–474 by EMSA (Figure S5B).
HIF-1β1-474, *please note that isoform 3 of HIF-1β was used). The standard protocol for protein expression was followed. Briefly, a 1 % culture in LB was incubated at 37 °C with shaking until OD600 of 0.6 was reached. 0.1 mM IPTG was added and the liquid culture incubated with shaking at 18 °C overnight. Cell pellets were suspended in MHW buffer9 (approximately 4 ml buffer per 1 g cell pellet). Lysozyme (100 µg/ml) was added to the lysate and the solution was incubated with shaking for 20 min at 5 °C. […]
glycerol) was added to individual wells of a Pierce Ni2+-coated 96-well plate (Thermo Scientific, catalogue no. […] The stated quantity of inhibitor (P1 or P2) was added as a solution in 100 µL of buffer to the desired wells, and the plate incubated at room temperature for 30 minutes. […]

MCF-7 cells [2] = assay: CyQUANT cell proliferation assay, MCF-7; assay type: cell-based; details: 100 μM, 72 h
Procedure: Sulforhodamine B cytotoxicity assay […]
incubated in hypoxia for 24h.
O.D. value of the experimental set.
CyQUANT cell proliferation assay
The cells were incubated for 5 hours and then treated with Tamoxifen or P1. After 24, 48 or 72 hours, the media was […]
C35006) following the manufacturers instructions. Fluorescence measurements were […]
Workman, P.; Ashcroft, M. Cancer Res 2005, 65, 4918.

MCF-7 cells [3] = details: MCF-7, 100 μM, hypoxia 24 h
U2OS cells = details: 100 μM, hypoxia 24 h
HIF-1 = details: cited from earlier work
From the text: (§1) Inhibition of HIF-1 has long been known to hold much potential for cancer therapy;[14] there are multiple possible points for therapeutic intervention in the hypoxia response network, and molecules that inhibit various components of this diverse pathway have been reported,[15]−[22] but the absolute requirement for the dimerization of HIF-1α and HIF-1β for DNA binding and transcription activity of the HIF-1 complex makes this protein–protein interaction a seemingly optimal point of interception. Several high-throughput screens have been conducted in the effort to identify HIF-1 inhibitors,[15], ...

HIF-2 = details: cited from earlier work
From the text: as §1

HIF-2α PAS-B = details: cited from earlier work
From the text: (§2) A homology model of HIF-1α PAS-B mapped onto the NMR s ...

PAS-B domain of HIF-1α = molecular target: T2, PAS-B domain of HIF-1α (Homo sapiens, UniProt Q16665); details: cited from earlier work
T2 construct: Per-ARNT-Sim-B (PAS-B, amino acids 235–350) domains; His (N); made in house; host or cells: E. coli BL21(DE3)
From the text: as §2

| Molecule | IC50 [1] | viability / proliferation of MCF-7 cells (MCF-7 cells [2]) | SRB cytotoxicity (MCF-7 cells [3]) | SRB cytotoxicity (U2OS cells) | inhibition of HIF-1 (HIF-1) | inhibition of HIF-2 (HIF-2) | targeting of PAS-B domain of HIF-2α (HIF-2α PAS-B) | targeting of PAS-B domain of HIF-1α (PAS-B domain of HIF-1α) |
| --- | --- | --- | --- | --- | --- | --- | --- | --- |
| CC(C)C[C@@H]1NC(=O)[C@H](CSSC[C@H](N)C(=O)NCC(=O)N[C@@H](CCCNC(=N)N)C(=O)N[C@@H](CCCCN)C(=O)N[C@@H](CCCCN)C(=O)N[C@@H](CCCNC(=N)N)C(=O)N[C@@H](CCCNC(=N)N)C(=O)N[C@@H](CCC(N)=O)C(=O)N[C@@H](CCCNC(=N)N)C(=O)N[C@@H](CCCNC(=N)N)C(=O)N[C@@H](CCCNC(=N)N)C(=O)N2CCC[C@H]2C(=O)N2CCC[C@H]2C(=O)N[C@@H](CCC(N)=O)C(=O)O)NC(=O)[C@H](Cc2ccc(O)cc2)NC(=O)[C@H](C(C)C)NC(=O)[C@H](Cc2ccccc2)NC(=O)[C@H](CC(C)C)NC1=O [P1, Tat-cyclo-CLLFVY] | 1.3 µM | did not affect the viability of MCF-7 cells; also recorded: no effect on MCF-7 proliferation | not cytotoxic | not cytotoxic |  |  |  |  |
| acriflavine |  |  |  |  | nonselectively inhibits both HIF-1 and HIF-2 | nonselectively inhibits both HIF-1 and HIF-2 | targeted | targeted |

Reference: article PMC3715890, “A Cyclic Peptide Inhibitor of HIF-1 Heterodimerization That Inhibits Hypoxia Signaling in Cancer Cells” (Journal of the American Chemical Society, 2013)
